Legend:
[1] = system: HEK cells expressing αS-A53T-YFP; experiment: Intracellular seed catalyzed aggregation in HEK cells, MTT viability; assay type: cell-based; conditions: 10 µM SK-129 added 8 h after PD seeds, up to four days
Procedure: The HEK cells (200,000 cells/mL) were plated in an µ-slide eight-well plate (300 µL/well) and incubated at 37 °C and 5% CO2 (g), and allowed to adhere to the plate for 24 h in media (DMEM, 10% FBS, 1% pen/strep). […] The HEK cells were incubated with αS fibrils for 8 h followed by the addition of 10 µM SK-129 for 300 µL media in each well (0.3 µL of 10 mM stock solution in DMSO, total DMSO = 0.1% v,v). The eight-well plate was incubated for a total of 24 h. The eight-well plate after 24 h was used for both confocal imaging and for the cytotoxicity measurements using MTT assay (2 wells/condition, 300 µL/well). In each experiment, 2 wells were used for each condition, including control (only media and DMSO), fibrils, and fibrils+SK-129.
The HEK cells in the eight-well plate were treated with 30 µL of 1x PBS buffer containing MTT dye (5 mg/mL in 1x PBS buffer) to each well. The plates were wrapped in aluminum foil and incubated for 3 h. After 3 h, all liquid was aspirated carefully without disturbing the formazan crystals. To each well, 300 µL of DMSO was added to dissolve the crystals. Once dissolved, the DMSO solution was transferred to a clear 96-well plate (100 µL/well). The absorbance was read on a 96-well plate reader at 570 nm. The cytotoxicity assay was conducted up to four days from when the protein conditions were added to the cells. […]

[2] = system: HEK293 cells expressing αS-A53T-YFP; experiment: MTT assay, HEK293 cells αS-A53T-YFP, recombinant αS fibers; assay type: cell-based; parameters: key to MTT read-out (viability of HEK cells): absorbance at 570 nm (dissolved formazan); conditions: for MTT read-out (viability of HEK cells): 7 μM αS + SK-129 equimolar
Procedure: The HEK293 cells that stably express αS-A53T-YFP and αS-YFP were grown in DMEM with 10% FBS and 1% pen/strep and cultured in an incubator at 37 °C and 5% CO2(g). A total of 60,000 cells per well in 300 µL media were plated in a µ-slide eight-well plate (Ibidi, Munich, Germany) and incubated for 24 h to adhere to the plate. […] Next, the plate was incubated for 24 h, followed by the addition of 30 µL of 1x PBS buffer containing MTT dye (in 1x PBS buffer, 5 mg/mL) to each well. The plates were wrapped in aluminum foil and incubated for 3 h. After 3 h, all liquid was aspirated carefully without disturbing the formazan crystals. To each well, 300 µL of DMSO was added to dissolve the crystals. Once dissolved, the DMSO solution was transferred to a clear 96-well plate (100 µL/well). The absorbance was read on a 96-well plate reader at 570 nm. The cytotoxicity of the HEK cells was monitored for up to 4 days.
The seeds were generated by aggregating recombinant αS (100 µM) in the absence and presence of SK-129 at an equimolar ratio under the ThT aggregation kinetic conditions for seven days. In the case of seeds from the brain, we used a PMCA sample (5th cycle) generated from the brain seeds in the absence and presence of SK-129 at an equimolar ratio.

Aβ42 = Aβ42 (Homo sapiens, UniProt P05067); experiment: Fluorescence polarization titration, SK-129F with Aβ42; assay type: binding; conditions: FP, higher Kd for Aβ42
Chain of Aβ42 (P05067 672-713 limits assumed, species assumed): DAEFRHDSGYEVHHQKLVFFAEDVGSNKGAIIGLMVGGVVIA
Procedure: All Fluorescence Polarization (FP) experiments were conducted on a Varian Cary Eclipse fluorometer (Agilent, Santa Clara, CA) equipped with a polarizer. The stock solutions of αS, 1 mM or 100 μM in 1x PBS buffer, were serially added into a solution of 10 μM SK-129F (300 μL in 1x PBS buffer) while stirring in a quartz cuvette (Fireflysci, Staten Island, NY). All FP measurements were conducted in triplicates in 20 mM Tris, 100 mM NaCl, pH 7.2 at 20 °C. The excitation and emissions wavelengths were set at 490 nm and 520 nm, respectively. Each titration was equilibrated for five min before measurements were taken for the next addition of αS solution. The addition of αS solution was continuous until no more change in the FP signal was observed. Similar conditions were used for the titration of various αS mutants and Aβ42 peptide against SK-129F. A stock solution of Aβ42 (1 mM or 100 μM in 1x PBS buffer on ice) was sequentially added to a solution of 10 μM SK-129F (300 μL in 1x PBS buffer) until no more change in the FP signal was observed. The polarization of each point was calculated using Eq. 1:1 FP=I∥−I⊥/I∥+I⊥ Where I∥ is fluorescence intensity parallel to the excitation plane and I⊥ is fluorescence intensity perpendicular to the excitation plane. […]

SMILES: COC(=O)c1cc(OCC(=O)O)c2cccc(NC(=O)c3cc(OC(C)C)c4cccc(NC(=O)c5cc(OCC(=O)O)c6cccc(NC(=O)c7cc(OC(C)C)c8cccc([N+](=O)[O-])c8n7)c6n5)c4n3)c2n1 [SK-129]
- cell viability of HEK cells [1]: significantly higher upto four days
- MTT read-out (viability of HEK cells) ([2]; trial 1): 0.806
- MTT read-out (viability of HEK cells) ([2]; trial 2): 0.8743
- MTT read-out (viability of HEK cells) ([2]; trial 3): 0.8833
- MTT read-out (viability of HEK cells) ([2]; trial 4): 0.8674
- MTT read-out (viability of HEK cells) ([2]; trial 5): 0.8626
- MTT read-out (viability of HEK cells) ([2]; trial 6): 0.8492
- MTT read-out (viability of HEK cells) ([2]; trial 7): 0.941
- MTT read-out (viability of HEK cells) ([2]; trial 8): 0.878
- MTT read-out (viability of HEK cells) ([2]; trial 9): 0.892
- MTT read-out (viability of HEK cells) ([2]; trial 10): 0.917
- MTT read-out (viability of HEK cells) ([2]; trial 11): 0.805
- MTT read-out (viability of HEK cells) ([2]; trial 12): 0.8882
- MTT read-out (viability of HEK cells) ([2]; trial 13): 0.8431
- MTT read-out (viability of HEK cells) ([2]; trial 14): 0.8823
- MTT read-out (viability of HEK cells) ([2]; trial 15): 0.919
- MTT read-out (viability of HEK cells) ([2]; trial 16): 0.8589
- viability of HEK cells ([2]; αS aggregated with SK-129 equimolar, 7 μM, 24 h, αS alone 68%): 94%
- Kd for Aβ42 relative to αS (Aβ42): more than 15 fold

Source: PMC9046208, “Foldamers reveal and validate therapeutic targets associated with toxic α-synuclein self-assembly” (Nature Communications, 2022)
